Assay results from patent publication US12122811B2, “BDNF mimetic peptide amphiphiles” (Northwestern University, priority 2018, dated 2024).
Non-standard residues stand in square brackets, D forms with d. Primed or numbered codes have the meaning given here. No end group written: not given here. PEG6′ = PEG6 spacer

What was measured:
TrkB receptor = target: T1, TrkB receptor (Mus musculus, UniProt P15209); test: TrkB receptor phosphorylation (p-TrkB) by western blot in primary cortical neurons; type: cell-based; conditions: for TrkB phosphorylation: 4 and 6 h timepoints, 0.5 μM
T1 construct: Protein was extracted from primary neuronal cultures; endogenous in cells; host or cells: primary cortical neurons from E16 CD1 mouse embryos, 14 DIV
Description: 2.3.2. Dissection of Embryonic Primary Cortical Neurons. Neurons were obtained from embryonic brains as described elsewhere.^2 Briefly, time-pregnant mouse was sacrificed by cervical dislocation and the embryos were extracted at embryonic day 16 (E16). Cerebral cortices were dissected from the mouse embryos and meninges were removed in a solution of Hank's Balanced Salt Solution (HBSS) with 1% pen-strep (Invitrogen) and then digested with trypsin (Invitrogen) and DNAse (Sigma-Aldrich) for 10 min at 37° C. The tissue was mechanically dissociated, centrifuged at 1000 g for 5 min, and resuspended in CO2-equilibrated Neurobasal (NB) neuronal culture medium (Invitrogen) supplemented with 10% normal horse serum (NHS) (Invitrogen), 1% pen-strep (Invitrogen), 0.5 mM L-glutamine (Invitrogen), and 5.8 μL NaHCO3/mL (Sigma-Aldrich). The cell suspension was pre-plated at 37° C. for 30 min. Afterwards, the supernatant was collected, passed through a cell strainer with 100 μm pore size and centrifuged at 1000 g for 5 min. The pellet was resuspended in NB neuronal culture medium (1% NHS, 1% pen-strep, 0.5 mM L-glutamine, 22 μM glutamic acid (Sigma-Aldrich), 2% B27 (Gibco), and 5.8 μL NaHCO3/mL (Sigma-Aldrich), and plated at different densities (depending on the type of experiment, see below) directly on tissue culture plates coated with poly-D-lysine (Sigma-Aldrich). After 24 hs, the medium was replaced with serum-free neuronal culture medium (1% pen-strep, 0.5 mM L-glutamine, 2% B27, 5.8 μL NaHCO3/mL). Under these conditions, we obtained a neuron-enriched culture with a composition of approximately 10% glial cells.
BDNF PA Treatments and Cell Culture Procedures. Treatments were prepared by dissolving PA (including E2 Filler, E2 Filler+E4PEG, E2 Filler+Linear BDNF, E2 Filler+BDNF PAs) and BDNF peptide at different concentrations (0.5, 1.0 or 5.0 μM), in media without serum or B27 supplement or starvation media. Unless otherwise noted, BDNF PA, Linear BDNF PA, or E4PEG PAs were co-assembled at 10 mol % with E2 filler PA (total concentration of PA was 5.0, 10.0, or 50.0 μM respectively). For the co-assembly ratio study, BDNF PA was co-assembled at 10, 20, 50, 70, 90, and 100 mol %. Human/Murine/Rat BDNF protein (Peprotech) was resuspended at different concentrations (0.25, 0.5 and 1 nM) in starvation media.
For western blot, cells were cultured in 6 well plates at a density of approximately 900,000 cells/well for 14 DIV before being treated. Treatments were added for 2, 4, 6, 8, 12 or 24 h in vitro before protein was harvested. […] Protein was extracted after six hours of treatment.
Western Blot. Protein was extracted from primary neuronal cultures with Halt Protease and Phosphatase Inhibitor Cocktail (Thermo Scientific) and a BCA assay (Thermo Scientific) was performed to determine protein content of each sample. Cell protein was loaded into and separated using a 4-20% SDS-PAGE gel (Bio-Rad). It was then electrotransferred from the gel to a nitrocellulose membrane (Bio-Rad). The membranes were blocked with 5% milk solution (Bio-Rad) for 30 minutes followed by an overnight incubation with primary antibodies at 4° C. The following primary antibodies were used: rabbit anti-pTrkB (1:1000, Cell Signaling), rabbit anti-TrkB (1:1000, Cell Signaling), rabbit anti-Actin (1:2000, Sigma Aldrich), mouse anti-Actin (1:2000, Sigma Aldrich), rabbit anti-pPLCγ (1:1000, Cell Signaling), rabbit anti-PLCγ (1:1000, Cell Signaling), rabbit anti-pAKT (1:2000, Cell Signaling), mouse anti-AKT (1:2000, Cell Signaling), rabbit anti-pERK1+ERK2 (1:1000, Abcam), rabbit anti-ERK 1/2 (1:1000, Cell Signaling), rabbit anti-PSD95 (1:1000, Abcam), rabbit anti-MAP-2 (1:2000, BioLegend), and mouse anti-Tuj-1 (1:1000, BioLegend). Membranes were then incubated with their corresponding secondary HRP-conjugated antibodies (1:1000; ThermoFisher). Protein signals were detected using Radiance Bioluminescent ECL substrate (Azure Biosystems). […]

[1] = system: mouse model of spinal cord injury; test: Mouse model of spinal cord injury, Basso Mouse Scale hind limb scoring; type: in vivo; conditions: 12 weeks after injury; BDNF PA co-assembled at 20 mol % with E2 PA gel, injected 24 h after injury
Text: The spinal cord injury procedures used follow a standardized protocol to ensure a reproducible injury. Mice were anesthetized and their back is opened to reveal the vertebral column. The vertebral bone at T11 was surgically removed to reveal the spinal cord tissue. The mice were then transferred the impactor machine which is used to inflict a compression injury on the exposed spinal cord. The spinal cord was held in place using stereotactic clamps. The instrument inflicts a force of 70-80 kDynes and dwells in the place of the impact for 60 seconds to simulate a crush injury accident. This injury is quite severe. After each impact was performed, the instrument supplies a graph corresponding to the real force and trajectory of the impactor. This graph is used to compare and ensure that all animals receive an injury of the same nature. After the injury is inflicted, the animals were closed and allowed to rest for 24 hours.
The next day, the animals were re-opened and prepared for the “treatment” surgery. Before beginning the procedure, all animals underwent a behavioral assessment and mice with hind limb movement were discarded from the study. When the animal is re-opened, there was typically a dark, bruised area apparent where the crush injury took place the previous day. This is where the treatment was injected. A Hamilton syringe attached to a glass-pulled needle with a diameter of ˜300 μm was used to puncture the bruised dermis of the tissue and the treatment was injected into the underlying tissue cavity. Treatment types include; saline, and the C16V2A2E2 (E2) non-bioactive PA gel as negative controls, as well as the BDNF PA co-assembled at 20 mol % with the E2 non-bioactive PA gel.
After injection, the animals were closed and returned to cages to recover. Over the next 12 weeks, blinded hind limb behavioral scoring was performed to assess any functional changes (FIG. 21). A standardized “Basso Mouse Scale” was used (Basso et al. J Neurotrauma. 2006 May; 23(5):635-59.; herein incorporated by reference in its entirety). Two blinded researchers were either side of a runway where the mouse was guided to move in a straight line. As the mouse walks, each researcher grades the limb movement. Any discrepancies in evaluation were re-evaluated by a third researcher. The score for the two limbs was averaged and marked as the score for that animal.

cortical neurons = test: Infiltration and maturation of cortical neurons on 3D PA gel scaffolds; type: cell-based, mouse; conditions: neurons on gels, one week
Description: Gels were made using annealed PAs prepared with methods described herein 1. BDNF native protein or BDNF peptide were incorporated by mixing at 10 nM or 0.5 uM respectively, with E2 Filler PA gel at 1 wt % while it was in its liquid state. Silicon isolators with adhesive (Invitrogen) were placed on PDL coated glass coverslips. 70 μL of PA liquid was pipetted into the circular silicon well and a Transwell insert was placed flush with the top of the well of the silicon insert. This step ensured a flat, even thickness for all gels. Gelling solution comprised of 125 mM NaCl, 3 mM KCl, and 25 mM CaCl2 was pipetted into the Transwell insert and allowed to slowly soak down into the material from the top. The insert prevented the gel from swelling more than the thickness of the silicon isolator. All gels were incubated at 37° C. for 5 min before removing the Transwell insert.
Infiltration Study. Gels were prepared as described in 2.1.2. Gels were then rinsed with media one time before cells were seeded on top at a density of approximately 42,000 cells/well. Cells were cultured for one week in vitro. Half of the gels were analyzed by patch clamp analysis (see section 3.4.9. Other gels were fixed with 4% PFA to perform infiltration studies. Cell were stained for MAP2, TUJ-1 and DAPI using immunocytochemistry methods described previously. Confocal microscopy was used to make z-stack reconstructions of each gel. The MultiMeasure function in the ROI manager of ImageJ was used to measure the depth of pixels for each channel which was then plotted as intensity vs depth in the gel. The average intensity of MAP2 was measured by averaging the mean intensities obtained from maximum intensity projections of z-stacks images of gels.

T1 sequence (P15209 32-821): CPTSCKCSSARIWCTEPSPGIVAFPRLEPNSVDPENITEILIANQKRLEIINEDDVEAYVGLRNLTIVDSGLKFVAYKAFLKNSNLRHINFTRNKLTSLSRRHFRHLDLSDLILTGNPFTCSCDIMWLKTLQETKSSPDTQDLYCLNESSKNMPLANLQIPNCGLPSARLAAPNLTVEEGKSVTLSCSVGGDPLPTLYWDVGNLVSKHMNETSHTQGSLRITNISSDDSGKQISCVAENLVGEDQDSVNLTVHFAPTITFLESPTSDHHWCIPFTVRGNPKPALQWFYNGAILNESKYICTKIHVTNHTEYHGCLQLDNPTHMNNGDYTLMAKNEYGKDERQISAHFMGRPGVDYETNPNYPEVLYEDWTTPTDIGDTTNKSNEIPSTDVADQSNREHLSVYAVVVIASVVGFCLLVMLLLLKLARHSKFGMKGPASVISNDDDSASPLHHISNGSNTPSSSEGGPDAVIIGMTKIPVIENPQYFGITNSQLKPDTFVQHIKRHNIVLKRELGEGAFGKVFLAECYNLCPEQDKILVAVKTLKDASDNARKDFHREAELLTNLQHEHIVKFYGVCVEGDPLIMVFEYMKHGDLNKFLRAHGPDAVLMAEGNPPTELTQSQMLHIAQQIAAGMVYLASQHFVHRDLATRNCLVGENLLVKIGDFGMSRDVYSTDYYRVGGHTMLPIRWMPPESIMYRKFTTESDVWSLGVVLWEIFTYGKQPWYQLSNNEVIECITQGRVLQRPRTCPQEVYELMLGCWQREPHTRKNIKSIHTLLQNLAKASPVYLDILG

Compound	TrkB phosphorylation after pre-treatment with inhibitor K252a (TrkB receptor; K252a 2 h prior to treatment, 6 h post-treatment)	TrkB phosphorylation (TrkB receptor)	final average limb behavioral score (Basso Mouse Scale) [1]	distance that neurites infiltrated from the top of the scaffold (cortical neurons) [μm]	normalized average of MAP2 intensity (cortical neurons)
COC(=O)[C@@]1(O)C[C@H]2O[C@]1(C)n1c3ccccc3c3c4c(c5c6ccccc6n2c5c31)C(=O)NC4 [K252a, reference compound]	completely blocked	–	–	–	–
C16V2A2E2 (EEAAVV) [E2 Filler PA]	–	none of these control conditions were able to induce TrkB phosphorylation	2.4	36.9±9.9	0.32±0.06
Linear BDNF PA: non-cyclized BDNF PA synthesized as a control (chain 1 RKK[aK][dP][PEG6′]EEEEAAVV; chain 2 EEAAVV; not fully specified (C-terminus))	–	lack of TrkB phosphorylation	–	–	–
